This is an account of results in ChEMBL document CHEMBL1139333, “Search for new pharmacophores for antimalarial activity. Part I: synthesis and antimalarial activity of new 2-methyl-6-ureido-4-quinolinamides” (Bioorg Med Chem, 2009).

For test [1], the system named is Plasmodium falciparum. Briefly: Antimalarial effect as schizonticidal activity against chloroquine-sensitive Plasmodium falciparum 3D7 after 40 hrs. The note with it: 3D7, 40 h.
Test [2] has as its system Plasmodium falciparum. The experiment in a line: Antimalarial activity against chloroquine-sensitive Plasmodium falciparum 3D7 infected erythrocytes after 72 hrs by MSF assay. The note with it: 3D7, 72 h.
A short description of test [3]: Selectivity index, ratio of CC50 for african green monkey (Cercopithecus aethiops) Vero cells to IC50 for Plasmodium falciparum 3D7. Type of test: functional.

In brackets after ≈: the same amount, converted by molar mass. Where only a bound is given, the exact number is not on record here.

With `Cc1cc(NC(=O)c2ccccc2Cl)c2cc(NC(=O)Nc3cccc(C(F)(F)F)c3)ccc2n1`, in the test on Plasmodium falciparum [1], inhibition of growth (MIC) required 2 µg/mL (≈ 4.01 µM).

For the compound `Cc1cc(NC(=O)c2ccccc2)c2cc(NC(=O)Nc3ccc(Cl)c(C(F)(F)F)c3)ccc2n1`, half-maximal inhibition in the test with Plasmodium falciparum [2] (IC50) required 0.0194 µg/mL (≈ 0.0389 µM). For the same compound, in the test on Plasmodium falciparum [1], the lowest concentration to inhibit growth (MIC) was 1 µg/mL (≈ 2 µM).

`Cc1cc(NC(=O)c2ccccc2Cl)c2cc(NC(=O)Nc3cccc(Cl)c3C)ccc2n1`: the MIC (in general, the least concentration at which growth counts as inhibited) against Plasmodium falciparum [1] was 10 µg/mL (≈ 20.9 µM).

Regarding `Cc1cc(NC(=O)CN2CCCCC2)c2cc(NC(=O)Nc3cccc(C(F)(F)F)c3)ccc2n1`, the midpoint of inhibition in the test with Plasmodium falciparum [2], the IC50, lay at 0.0335 µg/mL (≈ 0.069 µM). For the same compound, in test [3], the “Selectivity Index” value was 214.3. Moreover, the MIC in the test with Plasmodium falciparum [1] stood at 0.25 µg/mL (≈ 0.515 µM).

As for `Cc1cc(NC(=O)CN2CCN(C)CC2)c2cc(NC(=O)Nc3ccc(Cl)cc3)ccc2n1`, in the test on Plasmodium falciparum [2], the IC50 (usually the concentration needed to halve the response being measured) was determined as 0.005 µg/mL (≈ 0.0107 µM). In the test with Plasmodium falciparum [1], this compound displayed an MIC of 0.5 µg/mL (≈ 1.07 µM).

Turning to `Cc1cc(NC(=O)c2ccccc2)c2cc(NC(=O)Nc3ccc(Cl)c(Cl)c3)ccc2n1`, in the test with Plasmodium falciparum [2], inhibition was half-maximal at 0.0109 µg/mL (≈ 0.0234 µM) (IC50). 1 µg/mL (≈ 2.15 µM) was the least that counted as inhibitory against Plasmodium falciparum [1] (MIC).

Compound `CC(=O)c1cccc(NC(=O)Nc2ccc3nc(C)cc(NC(=O)CN4CCN(C)CC4)c3c2)c1` came in with a half-maximal inhibitory concentration (IC50) in the test on Plasmodium falciparum [2] of 0.146 µg/mL (≈ 0.308 µM). For the same compound, the “Selectivity Index” value in test [3] amounted to 524.5. The compound also registered an MIC in the test with Plasmodium falciparum [1] of 0.5 µg/mL (≈ 1.05 µM).

`Cc1cc(NC(=O)c2ccccc2Cl)c2cc(NC(=O)Nc3ccc(Cl)c(C(F)(F)F)c3)ccc2n1` had an IC50 in the test with Plasmodium falciparum [2] of 0.0356 µg/mL (≈ 0.0667 µM). For the same compound, the “Selectivity Index” value in test [3] stood at 270.9.

The compound `Cc1cc(NC(=O)c2ccccc2)c2cc(NC(=O)Nc3cccc(Cl)c3C)ccc2n1` returned an MIC against Plasmodium falciparum [1] of 50 µg/mL (≈ 112 µM).

`Cc1cc(NC(=O)CN2CCCCC2)c2cc(NC(=O)Nc3cc(Cl)cc(Cl)c3)ccc2n1` gave a 50% inhibitory concentration (IC50) with Plasmodium falciparum [2] of 0.0288 µg/mL (≈ 0.0592 µM). Besides, in test [3], the “Selectivity Index” value was determined as 396.9. This compound gave an MIC in the test on Plasmodium falciparum [1] of 0.5 µg/mL (≈ 1.03 µM).

As for `Cc1cc(NC(=O)c2ccccc2)c2cc(NC(=O)Nc3ccc(F)c(Cl)c3)ccc2n1`, in the test with Plasmodium falciparum [1], the MIC stood at 10 µg/mL (≈ 22.3 µM).

For the compound `CC(=O)c1ccc(NC(=O)Nc2ccc3nc(C)cc(NC(=O)CN4CCN(C)CC4)c3c2)cc1`, the IC50 in the test with Plasmodium falciparum [2] was 0.014 µg/mL (≈ 0.0295 µM). In the test with Plasmodium falciparum [1], the MIC is 1 µg/mL (≈ 2.11 µM).

On to `Cc1cc(NC(=O)c2cccc(Cl)c2)c2cc(NC(=O)Nc3ccc(F)cc3)ccc2n1`, for which, in the test with Plasmodium falciparum [1], the MIC stood at 10 µg/mL (≈ 22.3 µM).

Take `Cc1cc(NC(=O)CN2CCN(C)CC2)c2cc(NC(=O)Nc3ccc(F)cc3)ccc2n1`: in the test on Plasmodium falciparum [1], 2 µg/mL (≈ 4.44 µM) was the least that counted as inhibitory (MIC).

`Cc1cc(NC(=O)CN2CCCCC2)c2cc(NC(=O)Nc3ccc(Cl)c(Cl)c3)ccc2n1`: the IC50 with Plasmodium falciparum [2] was found to be 0.0758 µg/mL (≈ 0.156 µM). In addition, the “Selectivity Index” value in test [3] is 524.2. The compound further returned an MIC in the test on Plasmodium falciparum [1] of 0.25 µg/mL (≈ 0.514 µM).

On to `Cc1cc(NC(=O)c2cccc(Cl)c2)c2cc(NC(=O)Nc3cccc(Cl)c3)ccc2n1`, for which the MIC in the test with Plasmodium falciparum [1] was found to be 50 µg/mL (≈ 107 µM).

With `Cc1cc(NC(=O)c2cccc(Cl)c2)c2cc(NC(=O)Nc3ccc(Cl)c(C(F)(F)F)c3)ccc2n1`, in the test on Plasmodium falciparum [1], the minimum inhibitory concentration (MIC) was over 10 µg/mL.

In the test with Plasmodium falciparum [2], `CCN1CCN(CC(=O)Nc2cc(C)nc3ccc(NC(=O)Nc4cccc(C(F)(F)F)c4)cc23)CC1` gave a concentration for half-maximal inhibition (IC50) of 0.028 µg/mL (≈ 0.0544 µM). This compound also came in with an MIC with Plasmodium falciparum [1] of 0.5 µg/mL (≈ 0.972 µM).

Turning to `Cc1cc(NC(=O)c2cccc(Cl)c2)c2cc(NC(=O)Nc3cccc(C(F)(F)F)c3)ccc2n1`, the IC50 in the test on Plasmodium falciparum [2] turned out to be 0.0099 µg/mL (≈ 0.0198 µM). Moreover, the “Selectivity Index” value in test [3] amounted to 6014.2.

`CC(=O)c1cccc(NC(=O)Nc2ccc3nc(C)cc(NC(=O)c4ccccc4)c3c2)c1` registered an MIC against Plasmodium falciparum [1] of 10 µg/mL (≈ 22.8 µM).

On to `CC(=O)c1ccc(NC(=O)Nc2ccc3nc(C)cc(NC(=O)c4ccco4)c3c2)cc1`, for which, in the test on Plasmodium falciparum [1], the lowest concentration to inhibit growth (MIC) was 10 µg/mL (≈ 23.3 µM).

As for `CC(=O)c1cccc(NC(=O)Nc2ccc3nc(C)cc(NC(=O)CN4CCCCC4)c3c2)c1`, the “Selectivity Index” value in test [3] stood at 214.4.

In turn, `Cc1cc(NC(=O)c2ccccc2)c2cc(NC(=O)Nc3ccc(Cl)cc3)ccc2n1` returned an MIC in the test on Plasmodium falciparum [1] of over 50 µg/mL.

`Cc1cc(NC(=O)CN2CCN(C)CC2)c2cc(NC(=O)Nc3cccc(C#N)c3)ccc2n1` returned an MIC against Plasmodium falciparum [1] of 2 µg/mL (≈ 4.37 µM).

In the test on Plasmodium falciparum [1], `Cc1cc(NC(=O)c2ccccc2)c2cc(NC(=O)Nc3cccc(C(F)(F)F)c3)ccc2n1` registered an MIC of 10 µg/mL (≈ 21.5 µM).

In turn, `Cc1cc(NC(=O)c2ccccc2Cl)c2cc(NC(=O)Nc3ccc(F)cc3)ccc2n1` returned a minimal inhibitory concentration (MIC) in the test on Plasmodium falciparum [1] of 50 µg/mL (≈ 111 µM).

For the compound `CC(=O)Nc1cc(C)nc2ccc(NC(=O)Nc3ccc(C(C)=O)cc3)cc12`, in the test with Plasmodium falciparum [1], inhibition of growth (MIC) required 10 µg/mL (≈ 26.6 µM).

In turn, `Cc1cc(NC(=O)c2ccccc2)c2cc(NC(=O)Nc3cccc(F)c3)ccc2n1` came in with an MIC in the test with Plasmodium falciparum [1] of 10 µg/mL (≈ 24.1 µM).

As for `Cc1cc(NC(=O)c2ccccc2Cl)c2cc(NC(=O)Nc3cccc(F)c3)ccc2n1`, in the test with Plasmodium falciparum [1], 2 µg/mL (≈ 4.46 µM) was the least that counted as inhibitory (MIC).

For `Cc1cc(NC(=O)c2ccccc2)c2cc(NC(=O)Nc3ccc(C)c(Cl)c3)ccc2n1`, the MIC in the test on Plasmodium falciparum [1] stood at 2 µg/mL (≈ 4.5 µM).

The compound `Cc1cc(NC(=O)c2ccccc2)c2cc(NC(=O)Nc3ccc(F)cc3)ccc2n1` showed an MIC in the test on Plasmodium falciparum [1] of 10 µg/mL (≈ 24.1 µM).

In the case of `Cc1cc(NC(=O)c2ccccc2)c2cc(NC(=O)Nc3cccc(Cl)c3)ccc2n1`, in the test on Plasmodium falciparum [1], inhibition of growth (MIC) required 50 µg/mL (≈ 116 µM).

In the test on Plasmodium falciparum [1], `Cc1cc(NC(=O)c2cccc(Cl)c2)c2cc(NC(=O)Nc3cccc(F)c3)ccc2n1` came in with an MIC of over 50 µg/mL.

In the test with Plasmodium falciparum [2], `CCN1CCN(CC(=O)Nc2cc(C)nc3ccc(NC(=O)Nc4ccc(C)c(Cl)c4)cc23)CC1` displayed an IC50 of 0.0035 µg/mL (≈ 0.00707 µM). For the same compound, in the test on Plasmodium falciparum [1], the MIC was found to be 0.5 µg/mL (≈ 1.01 µM).

For `Cc1cc(NC(=O)c2ccco2)c2cc(NC(=O)Nc3ccc(Cl)c(C(F)(F)F)c3)ccc2n1`, the half-inhibitory concentration (IC50) with Plasmodium falciparum [2] amounted to 0.0099 µg/mL (≈ 0.0203 µM). In test [3], the “Selectivity Index” value is listed as 713.3.

The compound `CC(=O)Nc1cc(C)nc2ccc(NC(=O)Nc3cc(Cl)cc(Cl)c3)cc12` registered a minimal inhibitory concentration (MIC) in the test with Plasmodium falciparum [1] of 2 µg/mL (≈ 4.96 µM).

With `Cc1cc(NC(=O)c2ccccc2)c2cc(NC(=O)Nc3cccc(C#N)c3)ccc2n1`, the lowest concentration to inhibit growth with Plasmodium falciparum [1] (MIC) was 10 µg/mL (≈ 23.7 µM).

The compound `Cc1cc(NC(=O)c2cccc(Cl)c2)c2cc(NC(=O)Nc3ccc(Br)cc3)ccc2n1` registered an MIC with Plasmodium falciparum [1] of 2 µg/mL (≈ 3.92 µM).

For the compound `Cc1cc(NC(=O)c2ccccc2)c2cc(NC(=O)Nc3ccc(Br)cc3)ccc2n1`, the MIC in the test on Plasmodium falciparum [1] stood at 10 µg/mL (≈ 21 µM).

`Cc1cc(NC(=O)c2cccc(Cl)c2)c2cc(NC(=O)Nc3ccc(Cl)c(Cl)c3)ccc2n1`: the lowest concentration to inhibit growth against Plasmodium falciparum [1] (MIC) was 10 µg/mL (≈ 20 µM).

In the case of `CC(=O)c1cccc(NC(=O)Nc2ccc3nc(C)cc(NC(=O)c4ccccc4Cl)c3c2)c1`, the MIC against Plasmodium falciparum [1] was determined as 2 µg/mL (≈ 4.23 µM).

As for `CC(=O)Nc1cc(C)nc2ccc(NC(=O)Nc3ccc(C)c(Cl)c3)cc12`, in the test with Plasmodium falciparum [1], the MIC amounted to 50 µg/mL (≈ 131 µM).

Regarding `Cc1cc(NC(=O)c2ccccc2Cl)c2cc(NC(=O)Nc3ccc(Cl)cc3)ccc2n1`, in the test with Plasmodium falciparum [1], the MIC was found to be 2 µg/mL (≈ 4.3 µM).

Turning to `Cc1cc(NC(=O)c2cccc(Cl)c2)c2cc(NC(=O)Nc3cccc(C#N)c3)ccc2n1`, the MIC in the test with Plasmodium falciparum [1] came to 1 µg/mL (≈ 2.19 µM).

Consider `CC(=O)c1cccc(NC(=O)Nc2ccc3nc(C)cc(NC(=O)c4cccc(Cl)c4)c3c2)c1`, for which the minimal inhibitory concentration (MIC) in the test on Plasmodium falciparum [1] worked out at 10 µg/mL (≈ 21.1 µM).

Turning to `Cc1cc(NC(=O)CN2CCN(C)CC2)c2cc(NC(=O)Nc3cccc(Cl)c3C)ccc2n1`, the MIC in the test with Plasmodium falciparum [1] is over 10 µg/mL.

Consider `Cc1cc(NC(=O)c2ccccc2Cl)c2cc(NC(=O)Nc3ccc(F)c(Cl)c3)ccc2n1`, for which, in the test on Plasmodium falciparum [1], it took 10 µg/mL (≈ 20.7 µM) to inhibit growth (MIC).

As to `CC(=O)c1ccc(NC(=O)Nc2ccc3nc(C)cc(NC(=O)c4ccccc4)c3c2)cc1`, the minimum inhibitory concentration (MIC) with Plasmodium falciparum [1] worked out at 50 µg/mL (≈ 114 µM).

On to `Cc1cc(NC(=O)c2cccc(Cl)c2)c2cc(NC(=O)Nc3ccc(C)c(Cl)c3)ccc2n1`, for which the MIC with Plasmodium falciparum [1] stood at 10 µg/mL (≈ 20.9 µM).

In turn, `CC(=O)Nc1cc(C)nc2ccc(NC(=O)Nc3ccc(Cl)cc3)cc12` returned an MIC with Plasmodium falciparum [1] of 10 µg/mL (≈ 27.1 µM).

`Cc1cc(NC(=O)CN2CCN(C)CC2)c2cc(NC(=O)Nc3cccc(F)c3)ccc2n1` yielded an MIC in the test on Plasmodium falciparum [1] of 10 µg/mL (≈ 22.2 µM).

Take `CCN(CC)CCCC(C)Nc1ccnc2cc(Cl)ccc12` (configuration not stated) [CHLOROQUINE]: the minimal inhibitory concentration (MIC) against Plasmodium falciparum [1] is 0.015 µg/mL (≈ 0.0469 µM).

In turn, `Cc1cc(NC(=O)c2ccco2)c2cc(NC(=O)Nc3cc(Cl)cc(Cl)c3)ccc2n1` displayed an MIC against Plasmodium falciparum [1] of 2 µg/mL (≈ 4.39 µM).

For the compound `Cc1cc(NC(=O)c2ccccc2Cl)c2cc(NC(=O)Nc3cc(Cl)cc(Cl)c3)ccc2n1`, inhibition with Plasmodium falciparum [2] was half-maximal at 0.0217 µg/mL (≈ 0.0434 µM) (IC50). In test [3], the “Selectivity Index” value was determined as 505.
